Test results published in PubChem BioAssay (NCI).
Where “and” joins values, the source holds several entries; their conditions need not be identical. Equal entries are not always repeated.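 96-well plates; 48 h exposure; 5 concentrations. Endpoints by linear interpolation between flanking doses. Not reached: highest tested concentration assigned. Abbreviation: GI50, concentration required for 50% inhibition of growth. TGI marks complete inhibition of growth.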

Test system: MDA-MB-468 breast
Test: NCI tumour cell line growth inhibition, 48 h

Structure (SMILES)	GI50	TGI
CN(C)CCN(C)c1ccc2ncc(C#Cc3cncc(C(=O)Nc4ccc(CN5CCN(C)CC5)c(C(F)(F)F)c4)c3)n2n1	3.08 µM	9.91 µM
Cn1cc(-c2csc(-c3cn(CCCN4CCCCC4)c4ccc(Br)cc34)n2)c2cccnc21	1.86 µM	3.55 µM
COc1ccc(Cl)cc1Nc1nc(C(F)(F)F)ccc1C(=O)N/N=C/c1ccccc1Cl	1.85 µM	18.5 µM
CCCCCCCCCCCCSC1=CC(=O)C=CC1=O	7.09 µM	> 34.6 µM
COc1ccc(-c2nsc3c2NC(=O)CC3c2cccc(F)c2)cc1 (stereo unspecified)	1.94 µM	6.98 µM
Cc1ccc2c(c1)C(=O)/C(=C/c1cccc(OCC(=O)c3ccc(Cl)cc3)c1)CS2	2.41 µM	7.07 µM
COc1cc(C(=O)c2cnc(-c3ccc4cc[nH]c4c3)[nH]2)cc(OC)c1OC	0.0327 µM	2.66 µM
CN(C)c1ccc2cc3c(cc2c1)Oc1ccccc1N3.[Cl][Zn][Cl]	1.09 µM	3.15 µM
COc1ccccc1-c1ccc2c(N)c(C(=O)c3ccc4c(c3)OCO4)sc2n1	2.43 µM	8.64 µM
COc1ccc2c(c1)C(=O)/C(=C/c1cccc(OCC(=O)c3ccc([N+](=O)[O-])cc3)c1)CO2	1.58 µM	3.51 µM
COC1/C=C/OC2(C)Oc3c(C)c(O)c4c(O)c(c(/C=N/N(c5ccccc5)c5ccccc5)c(O)c4c3C2=O)NC(=O)C(C)=C/C=C/C(C)C(O)C(C)C(O)C(C)C(OC(C)=O)C1C (stereo unspecified)	1.84 µM	7.5 µM
COc1ccc(C2CC(c3ccc4ccccc4c3)=NN2c2nc(O)c(C3=c4cc(Cl)ccc4=NC3=O)s2)cc1 (stereo unspecified)	0.021 µM and < 0.005 µM	
N#Cc1ccc(O)c(C2=NCC(c3ccc(-c4ccccc4)cc3)O2)c1 (stereo unspecified)	0.256 µM	1.81 µM
CN(C)C[C@@H]1CCn2cc(c3ccccc32)C2=C(C(=O)NC2=O)c2cn(c3ccccc23)CCO1	2.17 µM	> 10 µM
CN1CCN(C(=O)[C@@]2(C)CC[C@]3(C)CC[C@]4(C)C(=CC[C@@H]5[C@@]6(C)CC[C@H](OC(=O)c7cccnc7)C(C)(C)[C@@H]6CC[C@]54C)[C@@H]3C2)CC1	1.71 µM	3.51 µM
COc1ccc2[nH]cc(C3(c4c[nH]c5ccc(OC)cc45)C(=O)Nc4ccc(Cl)cc43)c2c1	2.5 µM	7.85 µM
CCCCNP1(NCCCC)=NP(NCCCC)(NCCCC)=NP(NCCCC)(NCCCC)=NP(NCCCC)(NCCCC)=N1	0.194 µM	2.91 µM
Oc1ccccc1/C=N\Nc1ccccc1	4.93 µM	55.8 µM
Fc1ccc(-c2c(-c3ccncc3)[nH]c3cccnc23)cc1	3.78 µM	24.7 µM
CN(CCCCCCCCNc1ccnc2ccccc12)Cc1ccc(-c2ccc(-c3ccc(C#N)cc3)s2)cc1	0.0698 µM	1.29 µM
COc1ccc(C(=O)/C=C/c2c(C(F)(F)F)nc3ccccn23)cc1OC	1.81 µM	5.06 µM

Structure (SMILES)	GI50	TGI
CCN(CC)CCOc1ccc(NC(=O)C(C(C)C)N2C(=O)/C(=C/c3ccc(Br)cc3)SC2=S)cc1 (stereo unspecified)	1.92 µM	3.94 µM
O=C1c2c(c3c4ccccc4n(CCCCCCN4CCOCC4)c3c3[nH]c4ccccc4c23)C(=O)N1O	1.97 µM	4.69 µM
Cc1cnc(-c2ccc(-c3ccc(NC(=O)Nc4cccc(C(F)(F)F)c4)cc3F)c3c2C(=O)NC3)[nH]1	12.6 µM	31.1 µM
C#Cc1cccc(Nc2ncnc3ccc(-c4cnc(N)nc4)cc23)c1	0.376 µM	1.77 µM
CC[C@H](C)[C@H](NC(=O)[C@H]1CCCCN1C)C(=O)N(C)[C@H](C[C@@H](OC(C)=O)c1nc(C(=O)NC23C4C5C2C2C3C4C52C(=O)OC)cs1)C(C)C (stereo partly specified)	0.000428 µM and < 0.0025 µM	0.00695 µM and < 0.0025 µM
O=C1/C=C/[C@@H](O)[C@@H]2C[C@@H](O)C[C@H]2/C=C/CCC[C@H](CCc2ccc(NC(=S)Nc3ccc4c(c3)C(=O)OC43c4ccc(O)cc4Oc4cc(O)ccc43)cc2)O1	0.178 µM	0.449 µM
CCc1c2c(nc3ccc(OC(=O)OCc4ccc(B5OC(C)(C)C(C)(C)O5)cc4)cc13)-c1cc3c(c(=O)n1C2)COC(=O)[C@]3(O)CC	< 0.01 µM	0.0545 µM
C=C1C(=O)O[C@H]2[C@H]1CC/C(CNC(=O)C(C)c1ccc(CC(C)C)cc1)=C\CC[C@@]1(C)O[C@@H]21 (stereo partly specified)	1.43 µM	3.12 µM
CC[C@H](C)C(=O)O[C@H]1CCC=C2C=C[C@H](C)[C@H](CC[C@@H]3C[C@@H](O)CC(=O)O3)[C@H]21	3.13 µM	11.6 µM
O=c1oc2ccc(I)cc2c(=O)n1-c1ccc(I)cc1F	0.521 µM	2.94 µM
N#Cc1ccc(C(=O)c2cnn(-c3ccc(F)cc3)c2N)cc1	> 25 µM	> 25 µM
CC(=O)OCC1OC([S-])C(OC(C)=O)C(OC(C)=O)C1OC(C)=O.[Au+].c1ccc(CN2[CH-]N(Cc3ccccc3)C(c3ccccc3)=C2c2ccccc2)cc1	1.63 µM and 0.306 µM	3.41 µM and 1.17 µM
O=C(CCN1CCCC1)Nc1ccc2c(Nc3ccc(Br)cc3)c3ccccc3nc2c1	1.72 µM	3.27 µM
CCCn1cc(/C=N\N=C2\C(=O)Nc3ccc(C)cc32)c2ccccc21	1.69 µM	5.78 µM
CCN(CC)CCNc1ccc(N=Nc2cnc3ccccc3c2)c2ccccc12	1.34 µM	2.64 µM
O=c1[nH][nH]c(=O)c2c(O)c(-c3ccccc3)ncc12	25.2 µM and 48.2 µM	55.8 µM and 235 µM
O=C(C(=O)c1cccnc1)c1cccnc1	> 100 µM	> 100 µM
O=C(Nc1cccc(-n2ccc3c(NC(=O)c4ccccc4)nccc32)c1)c1ccc(Cl)c(Cl)c1	0.176 µM	0.903 µM
O=C1NC(c2cccc3ccccc23)Nc2ccccc21 (stereo unspecified)	0.127 µM	> 100 µM
CC1=C[C@H]2O[C@@H]3C[C@H]4OC(=O)/C=C\C=C\[C@H]([C@@H](C)O)OCC/C(C)=C/C(=O)OC[C@@]2(CC1)[C@]4(C)[C@]31CO1	0.00356 µM	0.0124 µM
